Source: US7910723B2, “IG20 splice variants therapeutics for cancer” (The Board of Trustees of the University of Illinois, priority 2006, dated 2011)

What was measured:
DR4 = assay: Association of exogenous MADD with DR4 in HEK293 cells (immunoprecipitation); assay type: cell-based
Experimental: (A) Phosphorylation status of MADD could influence its binding to DR4. HEK293 cells were transfected with wtMADD or MADD mutants. 36 h after transfection, the cells were harvested for immunoprecipitation using an anti-DR4 antibody followed by immunoblotting using an anti-YFP antibody to detect exogenous MADD. The membrane was reprobed with an anti-DR4 antibody to show the protein loading. (B) PI3K can influence the association of exogenous MADD with DR4. HEK293 cells were transfected with wtMADD. Twenty four hours after transfection, the cells were serum starved for 20 h. Further, they were treated with LY (10 μM) for 1 h, IGF-1 (150 ng/ml) for 20 minutes. Immunoprecipitation using an anti-DR4 antibody was followed by immunoblotting using anti-YFP or anti-DR4 antibody. (C) Akt can influence exogenous MADD association with DR4. HEK293 cells were co-transfected with wtMADD along with DN-Akt or the empty vector pcDNA3.1 (pcDNA). Thirty six hours after transfection, the cells were harvested for immunoprecipitation using anti-DR4 antibody followed by immunoblotting with an anti-YFP or an anti-DR4 antibody. (D) PI3K can influence the association of endogenous MADD with DR4. HeLa cells were serum starved for 20 h, then treated with LY (10 μM) for 1 h, IGF-1 (150 ng/ml) for 20 minutes. Immunoprecipitation using an anti-DR4 antibody was followed by immunoblotting with an anti-MADD or an anti-DR4 antibody. (E) Akt can influence the association of endogenous MADD with DR4. HeLa cells were transfected with DN-Akt or pcDNA. Thirty six hours after transfection, the cells were collected for immunoprecipitation using an anti-DR4 antibody followed by immunoblotting with an anti-MADD antibody.
MADD can bind to DR4 and thereby block the activation of the extrinsic apoptotic pathway. […] Stimulation of PI3K by IGF-1 increased, while inhibition by LY reduced, the association between wtMADD and DR4 (FIG. 15B). […] This interaction was reduced in the presence of LY (FIG. 15D) or DN-Akt (FIG. 15E).
Immunoprecipitation. Immunoprecipitations were performed using standard procedures. The samples were precleared with 10% (vol/vol) Protein-A agarose (Roche) for 1 h on a rocking platform. Specific antibodies were added and rocked for 1 h. Immunoprecipitates were captured by incubating with 10% (vol/vol) Protein-A agarose for an hour. The agarose beads were spun down and washed three times with NET/NP40 buffer (150 mM NaCl, 2 mM EDTA, 50 mM Tris-HCl pH 7.5, 0.1% NP-40). The antigens were released and denatured by adding SDS sample buffer. Immunoblots were prepared and analysed as described above.

HeLa cells = assay: CFSE dilution assay, HeLa; assay type: cell-based; details: versus control
Experimental: Cell Growth. 24 hours post-transduction, HeLa cells were plated as described in materials and methods. Cells were then harvested and viable cells (trypan blue negative cells) were counted on indicated days. Data represent Mean+SD of triplicates. Cell proliferation. 24 hours post-transduction HeLa cells were stained with CF SE-red (SNARF-1 carboxylic acid, acetate, succinimidyl ester), harvested on indicated days and evaluated for CFSE-dilution by FACS. The numbers on the histograms indicate geometric peak mean intensities of CFSE staining in the transduced cells. Cell survival. Crystal violet staining of cells surviving upon IG20 down-modulation after transduction shown C-G.
In order to assess the effects on cell growth and proliferation, various shRNA-expressing viable cells were counted. […] The cells were stained with CFSE and cell division was monitored. […] Further confirmation was obtained by plating equal numbers of HeLa cells expressing various shRNAs and determining the number and size of colonies after 12 days.
CFSE Dilution Assay. 24 hours post-transduction, 5×10^5 HeLa or 8×10^5 PA-1 cells were stained with 2 μM SNARF-1 carboxylic acid, acetate, succinimidyl ester (S-22801, Molecular Probes, Invitrogen, CA) for 15 minutes at 37° C. […] Every other day, cells were collected, washed and CFSE dilution, as an indicator of cell division, was determined by FACS analysis.

| Compound | Association of exogenous MADD with DR4 (DR4) | CFSE-dilution with time (cell division) (HeLa cells) |
| --- | --- | --- |
| O=c1cc(N2CCOCC2)oc2c(-c3ccccc3)cccc12 [LY] | reduced |  |
| 13L-shRNA: shRNA targeting exon 13L (IG20, MADD), 5′ CGGCGAATCTATGACAATC-3′ (SEQ ID NO: 4) |  | Lack of difference in CFSE-dilution |
